Assays:
Type in all cases: cell-based
[1] = tested on: Ba/F3 cells expressing EGFR-wt; experiment: Growth inhibition (GI50) of Ba/F3 cells expressing EGFR-wt, Celltiter glo; conditions: Mus musculus, BaF3, 72 h
Procedure: (§1) In this experimental example, a determination was made as to whether the compounds prepared in Examples 1-283 have the ability to inhibit the growth of Ba/F3 cells expressing EGFR-wt, del19/T790M/C797S (EGFR-DTC), L858R/T790M/C797S (EGFR-LTC), del19/T790M (EGFR-DT), and L858R/T790M (EGFR-LT) variants.
(§2) The parental Ba/F3 cell line is a population of cells that are not introduced with EGFR variants. Specifically, 100 μl of a cell line expressing each variant was plated in a 96-well plate at a density of 100,000 cells/ml. 10-point, 4-fold serial dilutions of each compound were prepared, starting at 2 mM. After 4 h, 0.5 μl of the compound (0.5% DMSO) was added, followed by incubation at 37° C. and 5% CO2 for 72 h. After incubation, the number of viable cells was measured using a Celltiter glo assay kit (Promega) and the GI50 of the compound was determined. The term “GI50” refers to the molar concentration (μM) of the compound required for 50% growth inhibition of cells.

[2] = tested on: Ba/F3 cells expressing del19/T790M/C797S (EGFR-DTC); experiment: Growth inhibition (GI50) of Ba/F3 cells expressing del19/T790M/C797S (EGFR-DTC), Celltiter glo; conditions: Mus musculus, BaF3, 72 h
Procedure: as §1, §2

[3] = tested on: Ba/F3 cells expressing L858R/T790M/C797S (EGFR-LTC); experiment: Growth inhibition (GI50) of Ba/F3 cells expressing L858R/T790M/C797S (EGFR-LTC), Celltiter glo; conditions: Mus musculus, BaF3, 72 h
Procedure: as §1, §2

[4] = tested on: parental Ba/F3 cell line; experiment: Growth inhibition (GI50) of the parental Ba/F3 cell line (not introduced with EGFR variants), Celltiter glo; conditions: Mus musculus, BaF3, 72 h, parental Ba/F3 cells
Procedure: as §2

Compound | GI50 [1] | GI50 [2] | GI50 [3] | GI50 [4]
COc1nc(N2CCC(N(C)C)C2)ccc1NC1=[N+]=C(N(c2ccccc2NS(C)(=O)=O)S(C)(=O)=O)C(Cl)=CN1 (stereo not shown) [Example 8, N-(5-chloro-2-((6-(3-(dimethylamino)pyrrolidin-1-yl)-2-methoxypyridin-3-yl)amino)pyrimidin-4-yl)-N-(2-(methylsulfonamido)phenyl)methanesulfonamide] | 2000 to 10000 nM | 100 to 500 nM | 500 to 2000 nM | 2000 to 10000 nM
CN1CCN(C2CCN(c3ncc(Nc4ncc(Br)c(Nc5ccc(F)cc5NS(C)(=O)=O)n4)cc3F)CC2)CC1 [Example 25, N-(2-((5-bromo-2-((5-fluoro-6-(4-(4-methylpiperazin-1-yl)piperidin-1-yl)pyridin-3-yl)amino)pyrimidin-4-yl)amino)-5-fluorophenyl)methanesulfonamide] | 500 to 2000 nM | 100 to 500 nM | 100 to 500 nM | 500 to 2000 nM
COc1cc(N2CCC(N3CCN(C)CC3)CC2)c(Cl)cc1Nc1ncc(Br)c(Nc2ccc(F)cc2NS(C)(=O)=O)n1 [Example 26, N-(2-((5-bromo-2-((5-chloro-2-methoxy-4-(4-(4-methylpiperazin-1-yl)piperidin-1-yl)phenyl)amino)pyrimidin-4-yl)amino)-5-fluorophenyl)methanesulfonamide] | 100 to 500 nM | 25 to 100 nM | 25 to 100 nM | 2000 to 10000 nM
CN1CCN(C2CCN(c3ccc(Nc4ncc(Br)c(Nc5ccc(F)cc5NS(C)(=O)=O)n4)c(Cl)c3)CC2)CC1 [Example 27, N-(2-((5-bromo-2-((2-chloro-4-(4-(4-methylpiperazin-1-yl)piperidin-1-yl)phenyl)amino)pyrimidin-4-yl)amino)-5-fluorophenyl)methanesulfonamide] | 2000 to 10000 nM | 100 to 500 nM | 500 to 2000 nM | 2000 to 10000 nM
COc1nc(N2CCOCC2)ccc1Nc1ncc(Br)c(Nc2ccc(F)cc2NS(C)(=O)=O)n1 [Example 29, N-(2-((5-bromo-2-((2-methoxy-6-morpholinopyridin-3-yl)amino)pyrimidin-4-yl)amino)-5-fluorophenyl)methanesulfonamide] | > 10000 nM | > 10000 nM | > 10000 nM | > 10000 nM
COc1nc(N2CCN(C3CC3)CC2)ccc1Nc1ncc(Br)c(Nc2ccc(F)cc2NS(C)(=O)=O)n1 [Example 30, N-(2-((5-bromo-2-((6-(4-cyclopropylpiperazin-1-yl)-2-methoxypyridin-3-yl)amino)pyrimidin-4-yl)amino)-5-fluorophenyl)methanesulfonamide] | > 10000 nM | 2000 to 10000 nM | 2000 to 10000 nM | > 10000 nM
COc1nc(N2CCC(N3CCOCC3)CC2)ccc1Nc1ncc(Br)c(Nc2ccc(F)cc2NS(C)(=O)=O)n1 [Example 31, N-(2-((5-bromo-2-((2-methoxy-6-(4-morpholinopiperidin-1-yl)pyridin-3-yl)amino)pyrimidin-4-yl)amino)-5-fluorophenyl)methanesulfonamide] | 2000 to 10000 nM | 500 to 2000 nM | 2000 to 10000 nM | 2000 to 10000 nM
COc1nc(N2CCC(C)(C)CC2)ccc1Nc1ncc(Br)c(Nc2ccc(F)cc2NS(C)(=O)=O)n1 [Example 32, N-(2-((5-bromo-2-((6-(4,4-dimethylpiperidin-1-yl)-2-methoxypyridin-3-yl)amino)pyrimidin-4-yl)amino)-5-fluorophenyl)methanesulfonamide] | 2000 to 10000 nM | 2000 to 10000 nM | 2000 to 10000 nM | 2000 to 10000 nM
CNS(=O)(=O)c1ccccc1Nc1nc(Nc2cc(C)c(N3CCC(N4CCN(C)CC4)CC3)cc2OC)ncc1Cl [Example 50, 2-((5-chloro-2-((2-methoxy-5-methyl-4-(4-(4-methylpiperazin-1-yl)piperidin-1-yl)phenyl)amino)pyrimidin-4-yl)amino)-N-methylbenzenesulfonamide] | 500 to 2000 nM | 100 to 500 nM |  | 500 to 2000 nM
CNS(=O)(=O)c1ccccc1Nc1nc(Nc2ccc(N3CCC(N4CCN(C)CC4)CC3)cc2OC)ncc1Cl [Example 51, 2-((5-chloro-2-((2-methoxy-4-(4-(4-methylpiperazin-1-yl)piperidin-1-yl)phenyl)amino)pyrimidin-4-yl)amino)-N-methylbenzenesulfonamide] | 2000 to 10000 nM | 100 to 500 nM |  | 2000 to 10000 nM
CNS(=O)(=O)c1ccccc1Nc1nc(Nc2ccc(N3CCC(N4CCN(C)CC4)CC3)nc2)ncc1Cl [Example 52, 2-((5-chloro-2-((6-(4-(4-methylpiperazin-1-yl)piperidin-1-yl)pyridin-3-yl)amino)pyrimidin-4-yl)amino)-N-methylbenzenesulfonamide] | 100 to 500 nM | 25 to 100 nM |  | 100 to 500 nM
CNS(=O)(=O)c1ccccc1Nc1nc(Nc2ccc(N3CCOCC3)nc2)ncc1Cl [Example 53, 2-((5-chloro-2-((6-morpholinopyridin-3-yl)amino)pyrimidin-4-yl)amino)-N-methylbenzenesulfonamide] | 100 to 500 nM | 100 to 500 nM |  | 100 to 500 nM
CCN1CCN(c2ccc(Nc3ncc(Cl)c(Nc4ccccc4S(=O)(=O)NC)n3)c(OC)n2)CC1 [Example 54, 2-((5-chloro-2-((6-(4-ethylpiperazin-1-yl)-2-methoxypyridin-3-yl)amino)pyrimidin-4-yl)amino)-N-methylbenzenesulfonamide] | 100 to 500 nM | 2000 to 10000 nM |  | 2000 to 10000 nM
COc1cc(N2CCC(N3CCN(C)CC3)CC2)c(C)cc1Nc1ncc(Cl)c(Nc2ccccc2S(=O)(=O)NC2CC2)n1 [Example 59, 2-((5-chloro-2-((2-methoxy-5-methyl-4-(4-(4-methylpiperazin-1-yl)piperidin-1-yl)phenyl)amino)pyrimidin-4-yl)amino)-N-cyclopropylbenzenesulfonamide] | 500 to 2000 nM | 500 to 2000 nM |  | 500 to 2000 nM
CN1CCN(C2CCN(c3ccc(Nc4ncc(Cl)c(Nc5ccccc5S(=O)(=O)NC5CC5)n4)cc3F)CC2)CC1 [Example 60, 2-((5-chloro-2-((3-fluoro-4-(4-(4-methylpiperazin-1-yl)piperidin-1-yl)phenyl)amino)pyrimidin-4-yl)amino)-N-cyclopropylbenzenesulfonamide] | 100 to 500 nM | 25 to 100 nM |  | 100 to 500 nM

More lines, main results first:

GI50 [1] | GI50 [2] | GI50 [3] | Compound | GI50 [4]
100 to 500 nM | 100 to 500 nM | 100 to 500 nM | COc1cc(N2CCC(N3CCN(C)CC3)CC2)c(Cl)cc1Nc1ncc(Cl)c(Nc2ccccc2NS(C)(=O)=O)n1 [Example 7, N-(2-((5-chloro-2-((5-chloro-2-methoxy-4-(4-(4-methylpiperazin-1-yl)piperidin-1-yl)phenyl)amino)pyrimidin-4-yl)amino)phenyl)methanesulfonamide] | 500 to 2000 nM
100 to 500 nM | 100 to 500 nM | 25 to 100 nM | COc1cc(N2CCC(N3CCN(C)CC3)CC2)c(C)cc1Nc1ncc(Cl)c(N(c2ccccc2NS(C)(=O)=O)S(C)(=O)=O)n1 [Example 9, N-(5-chloro-2-((2-methoxy-5-methyl-4-(4-(4-methylpiperazin-1-yl)piperidin-1-yl)phenyl)amino)pyrimidin-4-yl)-N-(2-(methylsulfonamido)phenyl)methanesulfonamide] | 500 to 2000 nM
500 to 2000 nM | 500 to 2000 nM | 500 to 2000 nM | COc1nc(N2CCC(N3CCN(C)CC3)CC2)ccc1Nc1ncc(Cl)c(N(c2ccccc2NS(C)(=O)=O)S(C)(=O)=O)n1 [Example 10, N-(5-chloro-2-((2-methoxy-6-(4-(4-methylpiperazin-1-yl)piperidin-1-yl)pyridin-3-yl)amino)pyrimidin-4-yl)-N-(2-(methylsulfonamido)phenyl)methanesulfonamide] | 2000 to 10000 nM
2000 to 10000 nM | 500 to 2000 nM | 500 to 2000 nM | COc1cc(N2CCC(N3CCN(C)CC3)CC2)c(C)cc1Nc1ncc(Cl)c(N(C)c2ccccc2N(C)S(C)(=O)=O)n1 [Example 11] | 500 to 2000 nM
2000 to 10000 nM | 500 to 2000 nM | 500 to 2000 nM | COc1nc(N2CCC(N3CCN(C)CC3)CC2)ccc1Nc1ncc(Br)c(Nc2ccc(F)cc2NS(C)(=O)=O)n1 [Example 28, N-(2-((5-bromo-2-((2-methoxy-6-(4-(4-methylpiperazin-1-yl)piperidin-1-yl)pyridin-3-yl)amino)pyrimidin-4-yl)amino)-5-fluorophenyl)methanesulfonamide] | 2000 to 10000 nM
500 to 2000 nM | 500 to 2000 nM |  | CNS(=O)(=O)c1ccccc1Nc1nc(Nc2ccc(N3CCC(N4CCN(C)CC4)CC3)nc2OC)ncc1Cl [Example 55, 2-((5-chloro-2-((2-methoxy-6-(4-(4-methylpiperazin-1-yl)piperidin-1-yl)pyridin-3-yl)amino)pyrimidin-4-yl)amino)-N-methylbenzenesulfonamide] | 100 to 500 nM
2000 to 10000 nM | 2000 to 10000 nM |  | COc1nc(N2CCC(N3CCN(C)CC3)CC2)ccc1Nc1ncc(Cl)c(Nc2ccccc2S(=O)(=O)NC2CC2)n1 [Example 61] | 500 to 2000 nM
